Reference: patent US9408854B2, “Methods and systems for pharmacogenomic treatment of cardiovascular conditions” (ROSTAQUO S.P.A., priority 2009, dated 2016)

Test system: hypertensive patients
Test: Pharmacogenomic study: change of office systolic blood pressure (DSBP5_0) after 5 weeks of rostafuroxin vs placebo, by genotype
Format: in vivo, human
Conditions: for response (average blood pressure change): individuals carrying all core SNPs; for Delta DSBP5_0: therapy vs placebo
Protocol: A pharmacogenomic study was performed to ascertain the effect of genetic variations on an individual response to rostafuroxin. The sample for the pharmacogenomic study consisted of 342 individuals that were genotyped with the Human1M array from Illumina using Human1M Duo CHIP genotyping Bead Chip according to procedure described in [Ref. 10, 11, 12]. Among the individuals, 169 were administered the placebo treatment and 173 the active drug (rostafuroxin) in the first period (5 weeks) with demographics as in [Ref 13]. In particular, patients were randomized to one of the following oral doses of rostafuroxin: 0.05, 0.15, 0.5, 1.5, or 5 mg/day for 5 weeks. Each dose had to be compared to a placebo in a crossover design.
For the above sample of individuals a genetic association analysis, was performed to associate the phenotype of the tested individuals with the SNPs detected in the individuals. The selected phenotype of interest was the blood pressure response. The SNPs selected for detection were the 1111170 SNPs on autosomal chromosomes of the individual.
The genetic analysis was performed according to a quantitative genetic association design where the phenotype of interest is a quantitative variable (QT), and the variables (factors) affecting the distribution of the phenotype of interest are SNPs, therapy (placebo, rostafuroxin) and the SNP*therapy interaction.
In particular, the quantitative phenotype selected for the statistical analyses was the difference in mmHg between the office Systolic Blood Pressure (SBP) at the end of first treatment period (SBP_5) and the office Systolic Blood Pressure at baseline after one month of run-in (SBP_0) and is herein also identified as DSBP5_0. The selected QT phenotype and other factors affecting distribution of the phenotype of interest were then analyzed according to the following quantitative trait interaction test Phenotype=SNP+therapy+SNP*therapy as illustrated in further details below.
In particular, in Table 2 the descriptive statistics of DSBP5_0 for the entire sample and for the patients treated with placebo and rostafuroxin are listed. The rather modest basal level of SBP can be explained in view of the recruitment of patients with “mild” hypertension (SBP range 140-179 mmHg), required by the inclusion of a placebo arm.
Those SNPs were further selected to identify the genotypes with the largest response to rostafuroxin compared to placebo by performing a Statistical ANOVA analysis using STATA software in placebo and rostafuroxin with DSBP5_0 as dependent variable and the candidate significant SNPs as independent variables. In particular, to select the genotypes of the interactions between two SNPs with the largest response to rostafuroxin compared to placebo, the Applicants performed an ANOVA statistics in placebo and rostafuroxin with DSBP5_0 as dependent variable and the interaction s between SNPs as independent variables. The Applicants report an example of this procedure in FIG. 5: interaction between rs8899 and rs4678. The Applicants selected the interaction between the genotype AA of rs8899 and the genotype BB of rs4678 because it presents the greatest remarkable decrement in the therapy group and not in the placebo group.
In particular, to select the genotypes with the largest response to rostafuroxin compared to placebo, the Applicants performed an ANOVA statistics (oneway) in placebo and rostafuroxin with DSBP5_0 as dependent variable and the significant SNPs as independent variables.

[1] = GWS SNP rs9361863 (LOC728360) genotype 2
[2] = GWS SNP rs9893372 (ATP2A3) genotype 3
[3] = GWS SNP rs10159569 (SH3PXD2A) genotype 1
[4] = GWS SNP rs10493940 (SLC30A7) genotype 2
[5] = GWS SNP rs10493940 (SLC30A7) genotype 3
[6] = GWS SNP rs12513375 (TTC29) genotype 3
[7] = GWS SNP rs12996186 (ARL5A) genotype 2
[8] = GWS SNP rs16877182 (THSD7A) genotype 2
[9] = GWS SNP rs16893522 (FAM46A) genotype 1
[10] = GWS SNP rs16893522 (FAM46A) genotype 2
[11] = GWS SNP rs17414954 (VCAM1) genotype 2
[12] = individuals carrying the genetic variations
[13] = interaction ADD2 rs4984 CC x TOP rs10502933 CT
[14] = interaction HSD19 rs947130 GG x NEDD4L rs4309483 AA
[15] = interaction HSD19 rs947130 GG x NKAIN3 rs4739037 GA
[16] = interaction LSS2 rs914247 AA x ADD1 rs4961 GT + TT
[17] = interaction LSS2 rs914247 AA x WNK1 rs880054 AG + GG
[18] = interaction LSS2 rs914247 GA + AA x MDR2 rs1045642 CC
[19] = interaction MDR2 rs1045642 TT x AGTR1 rs2131127 CC
[20] = interaction MDR2 rs1045642 TT x HSD18 rs10923835 AT + TT

For `C[C@]12CC[C@H](O)C[C@H]1CC[C@@H]1[C@@H]2CC[C@]2(C)[C@@](O)(c3ccoc3)CC[C@]12O` [rostafuroxin, 17β-(3-furyl)-5β-androstane-3β,14β,17α-triol], the DSBP5_0 therapy (GWS SNP rs9361863 (LOC728360) genotype 1) was −15 mmHg, the “DELTA delta Therapy placebo” value [1] was 8.833 mmHg and the DSBP5_0 therapy [1] was −13.48 mmHg. For the same compound, the “DELTA delta Therapy placebo” value [2] was 4.434 mmHg, the DSBP5_0 therapy [2] was −10.91 mmHg and the “DELTA delta Therapy placebo” value [3] was 10.63 mmHg. The DSBP5_0 therapy [3] was −13.17 mmHg, the “DELTA delta Therapy placebo” value [4] was 5.95 mmHg and the DSBP5_0 therapy [4] was −12.13 mmHg. The “DELTA delta Therapy placebo” value [5] was 28.95 mmHg, the DSBP5_0 therapy [5] was −25 mmHg and the “DELTA delta Therapy placebo” value [6] was 15.93 mmHg. For the same compound, the DSBP5_0 therapy [6] was −19.18 mmHg, the “DELTA delta Therapy placebo” value [7] was 17.96 mmHg and the DSBP5_0 therapy [7] was −22.79 mmHg. The “DELTA delta Therapy placebo” value [8] was 18.85 mmHg, the DSBP5_0 therapy [8] was −21.67 mmHg and the “DELTA delta Therapy placebo” value [9] was 27.03 mmHg. For the same compound, the DSBP5_0 therapy [9] was −22.43 mmHg, the “DELTA delta Therapy placebo” value [10] was 2.874 mmHg and the DSBP5_0 therapy [10] was −1.138 mmHg. The “DELTA delta Therapy placebo” value [11] was 7.158 mmHg, the DSBP5_0 therapy [11] was −13.03 mmHg and the “Mean fall in blood pressure mmHg (DSBP5_0)” value (all never previously treated (NPT) patients on therapy (99 IDs), 5 weeks, no genotype selection) was −5.831 mmHg. The “DSBP5_0 therapy” value (carriers rs914247 (LSS2) AA (CAND 1 SNP)) was −17 mmHg, the “DSBP5_0 therapy” value (carriers rs2345088 TT (Illumina genotype 1), NPT patients, 5 weeks) was −30.5 mmHg and the “DSBP5_0 therapy” value (carriers rs2461911 AA (Illumina genotype 1), NPT patients, 5 weeks) was −20.6 mmHg. For the same compound, the “DSBP5_0 therapy” value (carriers rs5013093 TT (Illumina genotype 1), NPT patients, 5 weeks) was −20.49 mmHg, the “DSBP5_0 therapy” value (carriers rs12513375 TT (Illumina genotype 3), NPT patients, 5 weeks) was −19.18 mmHg and the “DSBP5_0 therapy” value (carriers rs16877182 C/T (Illumina genotype 2), NPT patients, 5 weeks) was −21.67 mmHg. The “DSBP5_0 therapy” value (carriers rs16893522 AA (Illumina genotype 1), NPT patients, 5 weeks) was −22.43 mmHg, the “response (average blood pressure change)” value (high dosages) was −15 mmHg and the “average decrease in systolic blood pressure” value (high doses (1.5; 5.0 mg/day), individuals carrying the genetic variations) was −12 mmHg. For the same compound, the “average decrease in nightly blood pressure” value [12] was no less than 9 mmHg, the “average decrease in office blood pressure” value [12] was “at least 15 mmHg” and the “DSBP50 ROSTAFUROXIN” value [13] was “.−19.21 mmHg”. For the same compound, the “Delta Rosta_placebo” value [13] was 24.73 mmHg, the “DSBP50 ROSTAFUROXIN” value [14] was “.−17.85 mmHg” and the “Delta Rosta_placebo” value [14] was 28.15 mmHg. For the same compound, the “DSBP50 ROSTAFUROXIN” value [15] was “.−18.18 mmHg”, the “Delta Rosta_placebo” value [15] was 15.72 mmHg and the “DSBP50 ROSTAFUROXIN” value [16] was “.−22.32 mmHg”. For the same compound, the “Delta Rosta_placebo” value [16] was 27.49 mmHg, the “DSBP50 ROSTAFUROXIN” value [17] was “.−16 mmHg” and the “Delta Rosta_placebo” value [17] was 16.48 mmHg. The “DSBP50 ROSTAFUROXIN” value [18] was “.−16.91 mmHg”, the “Delta Rosta_placebo” value [18] was 12.96 mmHg and the “DSBP50 ROSTAFUROXIN” value [19] was “.−16.9 mmHg”. The “Delta Rosta_placebo” value [19] was 14.34 mmHg, the “DSBP50 ROSTAFUROXIN” value [20] was “.−17.40 mmHg” and the “Delta Rosta_placebo” value [20] was 17.30 mmHg. The “response (average blood pressure change)” value (low dosages) was −23 mmHg, the “average decrease in systolic blood pressure” value (lower doses (0.05; 0.15; 0.5 mg/day), individuals carrying the genetic variations) was “approximately 18 mmHg” and the “Delta DSBP5_0” value (carriers rs2345088 TT (genotype 1)) was 33.93, mmHg. For the same compound, the “Delta DSBP5_0” value (carriers rs2461911 AA (genotype 1)) was 22.82, mmHg, the “Delta DSBP5_0” value (carriers rs5013093 TT (genotype 1)) was 22.09, mmHg and the “Delta DSBP5_0” value (carriers rs12513375 TT (genotype 3)) was 15.93, mmHg. The “Delta DSBP5_0” value (carriers rs16877182 C/T (genotype 2)) was 18.85, mmHg, the “Delta DSBP5_0” value (carriers rs16893522 AA (genotype 1)) was 27.03, mmHg and the “tolerability and quality of life” value (treated individuals, trial results) was “good tolerability and quality of life”.
